Experimental data: patent US9694016B2 (Novartis AG, priority 2013, dated 2017)
pIC50: −log10 of the molar value. Like-named read-outs stand apart in the source and are kept apart here.

Target: b-Raf (V600E) (Homo sapiens (Human), UniProt P15056, V600E)
Conditions: read-out: b-Raf IC-50, AlphaScreen
[1] = 60 min pre-incubation, 3 hours reaction
[2] = 60 min pre-incubation, reaction 3 hours at room temperature

Sequence of b-Raf (V600E) (P15056 whole entry V600E): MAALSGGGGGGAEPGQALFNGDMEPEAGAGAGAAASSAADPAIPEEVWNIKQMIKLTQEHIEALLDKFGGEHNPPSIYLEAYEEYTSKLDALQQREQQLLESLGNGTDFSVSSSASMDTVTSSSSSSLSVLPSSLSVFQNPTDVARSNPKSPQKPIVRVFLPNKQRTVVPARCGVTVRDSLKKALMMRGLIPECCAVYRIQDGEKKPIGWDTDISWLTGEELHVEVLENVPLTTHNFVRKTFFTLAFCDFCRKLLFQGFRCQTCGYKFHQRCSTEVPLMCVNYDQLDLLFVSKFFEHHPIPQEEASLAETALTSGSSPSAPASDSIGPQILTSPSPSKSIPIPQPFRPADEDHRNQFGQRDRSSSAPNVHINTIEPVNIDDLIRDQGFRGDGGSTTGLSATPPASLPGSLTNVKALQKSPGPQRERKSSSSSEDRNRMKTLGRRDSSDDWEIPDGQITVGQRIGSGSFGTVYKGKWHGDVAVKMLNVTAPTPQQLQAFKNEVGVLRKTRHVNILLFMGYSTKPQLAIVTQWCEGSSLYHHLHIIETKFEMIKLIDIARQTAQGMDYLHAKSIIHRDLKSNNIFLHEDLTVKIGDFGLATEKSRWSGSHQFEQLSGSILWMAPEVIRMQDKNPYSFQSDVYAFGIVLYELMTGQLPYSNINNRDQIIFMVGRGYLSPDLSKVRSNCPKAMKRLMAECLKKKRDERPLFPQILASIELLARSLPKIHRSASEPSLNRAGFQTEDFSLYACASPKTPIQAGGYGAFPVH

CCNc1nc(-c2cc(NC(=O)c3ccnc(C(F)(F)F)c3)ccc2C)cc(N2CCOCC2)n1 [Example 694, N-(3-(2-(ethylamino)-6-morpholinopyrimidin-4-yl)-4-methylphenyl)-2-(trifluoromethyl)isonicotinamide]
pIC50 [1]: 9.00

Cn1c(N2C3CCC2COC3)cc(-c2cc(NC(=O)c3ccnc(C(C)(F)F)c3)cnc2Cl)cc1=O [Example 528, N-(6′-(3-oxa-8-azabicyclo[3.2.1]octan-8-yl)-2-chloro-1′-methyl-2′-oxo-1′,2′-dihydro-[3,4′-bipyridin]-5-yl)-2-(1,1-difluoroethyl)isonicotinamide]
pIC50 [1]: 7.82

Cc1ccc(NC(=O)c2cnnc(C(C)(C)C#N)c2)cc1-c1cc(N2CCOCC2)n(C)c(=O)c1 [Example 489, 6-(2-cyanopropan-2-yl)-N-(4-methyl-3-(1-methyl-6-morpholino-2-oxo-1,2-dihydropyridin-4-yl)phenyl)pyridazine-4-carboxamide]
pIC50 [1]: 8.62

Cc1nc(C(=O)Nc2cnc(C)c(-c3cc(N4CCOCC4)c(=O)n(C)c3)c2)c(C)o1 [Example 383, N-(1′,2-dimethyl-5′-morpholino-6′-oxo-1′,6′-dihydro-[3,3′-bipyridin]-5-yl)-2,5-dimethyloxazole-4-carboxamide]
pIC50 (Table 2, 3 hours reaction): 5.55

Cc1ncc(NC(=O)c2ccnc(C(C)(C)F)c2)cc1-c1cnc(OC[C@H](C)O)c(N2CCOCC2)c1 [Example 990, (S)-2-(2-fluoropropan-2-yl)-N-(6′-(2-hydroxypropoxy)-2-methyl-5-morpholino-[3,3′-bipyridin]-5-yl)isonicotinamide]
pIC50 [2]: 8.27

Cc1ncc(NC(=O)c2ccnc(C(F)(F)F)c2)cc1-c1cc(NCCO)nc(N2CCOC[C@H]2C)c1 [Example 1140, (R)—N-(2′-((2-hydroxyethyl)amino)-2-methyl-6′-(3-methylmorpholino)-[3,4′-bipyridin]-5-yl)-2-(trifluoromethyl)isonicotinamide]
pIC50 [2]: 7.87

Cc1ncc(NC(=O)c2ccnc(C(C)(C)C#N)c2)cc1-c1cc(N2CCOCC2)n(C)c(=O)c1 [Example 499, 2-(2-cyanopropan-2-yl)-N-(1′,2-dimethyl-6′-morpholino-6′-oxo-1′,2′-dihydro-[3,4′-bipyridin]-5-yl)isonicotinamide]
pIC50 [1]: 7.66

CCOc1cc(-c2cc(NC(=O)c3ccnc(C(C)(C)C#N)c3)cnc2C)cc(N2CCOCC2)n1 [Example 1147, 2-(2-cyanopropan-2-yl)-N-(2′-ethoxy-2-methyl-6′-morpholino-[3,4′-bipyridin]-5-yl)isonicotinamide]
pIC50 [2]: 8.08

Cc1ccc(NC(=O)c2ccnc(C(F)(F)F)c2)cc1-c1cc(N2CCOCC2)nc(N2CC(O)C2)n1 [Example 773, N-(3-(2-(3-hydroxyazetidin-1-yl)-6-morpholinopyrimidin-4-yl)-4-methylphenyl)-2-(trifluoromethyl)isonicotinamide]
pIC50 [1]: 8.77

CCNc1nc(-c2cc(NC(=O)c3ccnc(C(C)(C)C#N)c3)ccc2C)cc(N2CCOC[C@H]2C)n1 [Example 711, (R)-2-(2-cyanopropan-2-yl)-N-(3-(2-(ethylamino)-6-(3-methylmorpholino)pyrimidin-4-yl)-4-methylphenyl)isonicotinamide]
pIC50 [1]: 8.25

Cc1ccc(NC(=O)c2ccnc(C(F)(F)F)c2)cc1-c1cc(N2CCOCC2)c(OCCO)nn1 [Example 585, N-(3-(6-(2-hydroxyethoxy)-5-morpholinopyridazin-3-yl)-4-methylphenyl)-2-(trifluoromethyl)isonicotinamide]
pIC50 [1]: 8.85

Cc1ccc(NC(=O)c2ccnc(C(F)(F)F)c2)cc1-c1cc(N2CCOCC2)nc(OC2CNC2)n1 [Example 780, N-(3-(2-(azetidin-3-yloxy)-6-morpholinopyrimidin-4-yl)-4-methylphenyl)-2-(trifluoromethyl)isonicotinamide]
pIC50 [1]: 8.68

Cc1ccc(NC(=O)c2cc(C(C)(C)C#N)ccn2)cc1-c1cc(N2CCOCC2)n(C)c(=O)c1 [Example 900, 4-(2-cyanopropan-2-yl)-N-(4-methyl-3-(1-methyl-6-morpholino-2-oxo-1,2-dihydropyridin-4-yl)phenyl)picolinamide]
pIC50 [2]: 8.50

Cc1ncc(NC(=O)c2cnnc(C3CC3)c2)cc1-c1cc(NCCO)nc(N2CCOCC2)c1 [Example 1052, 6-cyclopropyl-N-(2′-((2-hydroxyethyl)amino)-2-methyl-6′-morpholino-[3,4′-bipyridin]-5-yl)pyridazine-4-carboxamide]
pIC50 [2]: 8.08

Cc1ccc(NC(=O)c2ccnc(C(C)(C)C#N)c2)cc1-c1cc(N2CCOCC2)ncn1 [Example 2, 2-(2-cyanopropan-2-yl)-N-(4-methyl-3-(6-morpholinopyrimidin-4-yl)phenyl)isonicotinamide]
pIC50 (Table 2, 3 hours reaction): 8.32

CCOc1ncc(-c2cc(NC(=O)c3cccc(-c4nnco4)c3)cnc2C)cc1N1CCOCC1 [Example 244, N-(6′-ethoxy-2-methyl-5′-morpholino-[3,3′-bipyridin]-5-yl)-3-(1,3,4-oxadiazol-2-yl)benzamide]
pIC50 (Table 2, 3 hours reaction): 8.12

Cc1ccc(NC(=O)c2cnnc(C(F)(F)F)c2)cc1-c1c(F)c(NCCO)nc(N2CCOCC2)c1F [Example 1015, N-(3-(3,5-difluoro-2-((2-hydroxyethyl)amino)-6-morpholinopyridin-4-yl)-4-methylphenyl)-6-(trifluoromethyl)pyridazine-4-carboxamide]
pIC50 [2]: 7.53

Cc1ccc(NC(=O)c2ccnc(C(F)F)c2)cc1-c1cc(N2CCOCC2)nc(N2C(=O)OC[C@@H]2C)n1 [Example 785, (S)-2-(difluoromethyl)-N-(4-methyl-3-(2-(4-methyl-2-oxooxazolidin-3-yl)-6-morpholinopyrimidin-4-yl)phenyl)isonicotinamide]
pIC50 [1]: 8.12

Cc1ncc(NC(=O)c2ccnc(C(C)C)c2)cc1-c1cc(N2CCOCC2)n(C)c(=O)c1 [Example 505, N-(1′,2-dimethyl-6′-morpholino-2′-oxo-1′,2′-dihydro-[3,4′-bipyridin]-5-yl)-2-isopropylisonicotinamide]
pIC50 [1]: 8.24

Cc1ncc(NC(=O)c2cccc(C(F)(F)F)c2)cc1-c1cnc(O[C@@H]2CCOC2)c(N2CCOCC2)c1 [Example 311, (R)—N-(2-methyl-5′-morpholino-6′-((tetrahydrofuran-3-yl)oxy)-[3,3′-bipyridin]-5-yl)-3-(trifluoromethyl)benzamide]
pIC50 (Table 2, 3 hours reaction): 8.62

Cc1ncc(NC(=O)c2ccnc(C(F)F)c2)cc1-c1cc(N2CCOCC2)nc(N2CCOCC2)c1 [Example 1122, 2-(difluoromethyl)-N-(2-methyl-2′,6′-dimorpholino-[3,4′-bipyridin]-5-yl)isonicotinamide]
pIC50 [2]: 8.48

Cc1ncc(NC(=O)c2cccc(C(F)(F)F)c2)cc1-c1cnc(OCCO)c(N2CCOCC2)c1 [Example 145, N-(6′-(2-hydroxyethoxy)-2-methyl-5′-morpholino-[3,3′-bipyridin]-5-yl)-3-(trifluoromethyl)benzamide]
pIC50 (Table 2, 3 hours reaction): 8.52

Cc1ncc(NC(=O)c2cc(C(F)(F)F)ccn2)cc1-c1cc(N2CCOCC2)c(S(C)(=O)=O)nn1 [Example 923, N-(6-methyl-5-(6-(methylsulfonyl)-5-morpholinopyridazin-3-yl)pyridin-3-yl)-4-(trifluoromethyl)picolinamide]
pIC50 [2]: 8.26

Cc1ccc(NC(=O)c2cnnc(C3(C#N)CC3)c2)cc1-c1cc(N2CCOCC2)n(C)c(=O)c1 [Example 899, 6-(1-cyanocyclopropyl)-N-(4-methyl-3-(1-methyl-6-morpholino-2-oxo-1,2-dihydropyridin-4-yl)phenyl)pyridazine-4-carboxamide]
pIC50 [2]: 8.73

Cc1ncc(NC(=O)c2ccnc(C(C)(C)O)c2)cc1-c1cc(N2CCOCC2)n(C)c(=O)c1 [Example 501, N-(1′,2-dimethyl-6′-morpholino-2′-oxo-1′,2′-dihydro-[3,4′-bipyridin]-5-yl)-2-(2-hydroxypropan-2-yl)isonicotinamide]
pIC50 [1]: 7.49

Cc1ccc(NC(=O)c2ccnc(C(C)C)c2)cc1-c1cc(N2CCOCC2)c2nccn2n1 [Example 842, 2-isopropyl-N-(4-methyl-3-(8-morpholinoimidazo[1,2-b]pyridazin-6-yl)phenyl)isonicotinamide]
pIC50 [1]: 8.89

Cc1ccc(NC(=O)c2ccnc(C(C)(C)F)c2)cc1-c1cc(C2CCOCC2)c(=O)n(C)n1 [Example 676, 2-(2-fluoropropan-2-yl)-N-(4-methyl-3-(1-methyl-6-oxo-5-(tetrahydro-2H-pyran-4-yl)-1,6-dihydropyridazin-3-yl)phenyl)isonicotinamide]
pIC50 [1]: 8.62

Cc1ncc(NC(=O)c2cc(C(C)(C)O)ccn2)cc1-c1cnc(OC2CC3(COC3)C2)c(N2CCOCC2)c1 [Example 969, N-(6′-(2-oxaspiro[3.3]heptan-6-yloxy)-2-methyl-5′-morpholino-[3,3′-bipyridin]-5-yl)-4-(2-hydroxypropan-2-yl)picolinamide]
pIC50 [2]: 7.74

CCNc1nc(-c2cc(NC(=O)c3ccnc(S(C)(=O)=O)c3)ccc2C)cc(N2CCOCC2)n1 [Example 702, N-(3-(2-(ethylamino)-6-morpholinopyrimidin-4-yl)-4-methylphenyl)-2-(methylsulfonyl)isonicotinamide]
pIC50 [1]: 8.52

COc1nnc(-c2cc(NC(=O)c3cccc(S(C)(=O)=O)c3)ccc2C)cc1N1CCOCC1 [Example 553, N-(3-(6-methoxy-5-morpholinopyridazin-3-yl)-4-methylphenyl)-3-(methylsulfonyl)benzamide]
pIC50 [1]: 8.92

Cc1ccc(NC(=O)c2ccnc(C(C)(C)O)c2)cc1-c1cc(N2CCOCC2)c(=O)n(C)n1 [Example 638, 2-(2-hydroxypropan-2-yl)-N-(4-methyl-3-(1-methyl-5-morpholino-6-oxo-1,6-dihydropyridazin-3-yl)phenyl)isonicotinamide]
pIC50 [1]: 8.02

Cc1ccc(NC(=O)c2ccnc(C(C)(C)F)c2)cc1-c1cc(N2CCOCC2)n(C)c(=O)c1 [Example 479, 2-(2-fluoropropan-2-yl)-N-(4-methyl-3-(1-methyl-6-morpholino-2-oxo-1,2-dihydropyridin-4-yl)phenyl)isonicotinamide]
pIC50 [1]: 8.74

Cc1ccc(NC(=O)c2ccnc(C(C)(F)F)c2)cc1-c1cc(N2CCOCC2)c(OC(C)C)nn1 [Example 592, 2-(1,1-difluoroethyl)-N-(3-(6-isopropoxy-5-morpholinopyridazin-3-yl)-4-methylphenyl)isonicotinamide]
pIC50 [1]: 9.15
